ChEMBL document CHEMBL4602636, “Synthesis and in vitro antitumor evaluation of honokiol derivatives” (Bioorg Med Chem Lett, 2020)
Calls of active or inactive are those of the source. The calls are words filed in the database; no cut-off is given here.

Legend:
[1] = tested on: MCF7; assay: Antiproliferative activity against human MCF7 cells assessed as growth inhibition after 72 hrs by MTT assay; type: functional, cell-based; settings: MCF7, 72 h
[2] = tested on: I10; assay: Antiproliferative activity against mouse I10 cells assessed as growth inhibition after 72 hrs by MTT assay; type: functional, cell-based; settings: I10, 72 h
[3] = tested on: CNE2Z; assay: Antiproliferative activity against human CNE2Z cells assessed as growth inhibition after 72 hrs by MTT assay; type: functional, cell-based
[4] = tested on: I10; assay: Inhibition of cell migration in mouse I10 cells after 24 hrs under hypoxia condition by scratch wound healing assay; type: functional, cell-based
[5] = tested on: I10; assay: Antiproliferative activity against mouse I10 cells after 24 to 72 hrs by MTT assay; type: functional, cell-based
[6] = tested on: I10; assay: Antiproliferative activity against mouse I10 cells at 2.5 to 20 uM by MTT assay; type: functional, cell-based; settings: TDE = time-dependent effect
[7] = tested on: I10; assay: Downregulation of HIF1alpha expression in mouse I10 cells at 20 uM after 24 hrs Western blot analysis; type: functional, cell-based
[8] = tested on: I10; assay: Inhibition of cell migration in mouse I10 cells at 10 uM after 24 hrs under hypoxia condition by scratch wound healing assay; type: functional, cell-based
[9] = tested on: I10; assay: Antiinvasive activity against mouse I10 cells incubated for 36 hrs under hypoxia condition by crystal violet staining based transwell assay; type: functional, cell-based
[10] = tested on: I10; assay: Downregulation of MMP-2 expression in mouse I10 cells at 20 uM after 24 hrs Western blot analysis; type: functional, cell-based
[11] = tested on: I10; assay: Downregulation of MMP-9 expression in mouse I10 cells at 20 uM after 24 hrs Western blot analysis; type: functional, cell-based
[12] = tested on: I10; assay: Antiproliferative activity against mouse I10 cells at 20 uM after 24 to 72 hrs by MTT assay relative to control; type: functional
[13] = tested on: I10; assay: Antiinvasive activity against mouse I10 cells assessed as reduction in number of invaded cells at 2.5 uM after 36 hrs under hypoxia condition by crystal violet staining based transwell assay; type: functional, cell-based

| IC50 [1] [µM] | SMILES | IC50 [2] [µM] | IC50 [3] [µM] | further results |
| --- | --- | --- | --- | --- |
| 37.5 | C=CCc1ccc(OC)c(-c2ccc(O)c(CC=C)c2)c1 | 38 | 30.3 |  |
| 22.3 | C=CCc1ccc(OCc2ccccc2)c(-c2ccc(O)c(CC=C)c2)c1 | 21.8 | 24 |  |
| 24.7 | C=CCc1ccc(O)c(-c2ccc(OC)c(CC=C)c2)c1 [METHYLHONOKIOL] | 26.5 | 25.5 |  |
| > 50 | C=CCc1ccc(OC)c(-c2ccc(OC)c(CC=C)c2)c1 | > 50 | > 50 |  |
| > 50 | C=CCc1ccc(OCc2ccccc2)c(-c2ccc(OCc3ccccc3)c(CC=C)c2)c1 | > 50 | > 50 |  |
| 19.4 | C=CCc1ccc(OCc2c(Cl)cccc2Cl)c(-c2ccc(O)c(CC=C)c2)c1 | 17.2 | 19.9 |  |
| 14.7 | C=CCc1ccc(O)c(-c2ccc(OCc3ccc(Cl)cc3Cl)c(CC=C)c2)c1 | 10.4 | 11.3 | inhibition [4]: Dose-dependent effect; Activity [5]: Dose-dependent effect; Activity [6]: Tde; Activity [7]: Active; inhibition [8]: Active; Activity [9]: Dose-dependent effect; Activity [10]: Active; Activity [11]: Active; Activity [12]: 100%; Activity [13]: Active |
| 11.5 | C=CCc1ccc(O)c(-c2ccc(OCc3c(Cl)cccc3Cl)c(CC=C)c2)c1 | 16.6 | 16.4 |  |
| > 50 | C=CCc1ccc(OCc2c(Cl)cccc2Cl)c(-c2ccc(OCc3c(Cl)cccc3Cl)c(CC=C)c2)c1 | > 50 | > 50 |  |

More lines, now with the values behind:

| SMILES | IC50 [1] [µM] | IC50 [2] [µM] | IC50 [3] [µM] | further results |
| --- | --- | --- | --- | --- |
| C=CCc1ccc(OCc2ccc(Cl)cc2Cl)c(-c2ccc(O)c(CC=C)c2)c1 | 27.4 | 21.1 | 24.2 |  |
| C=CCc1ccc(OCC)c(-c2ccc(O)c(CC=C)c2)c1 | 19.9 | 24.7 | 20.4 |  |
| C=CCc1ccc(O)c(-c2ccc(O)c(CC=C)c2)c1 [HONOKIOL] | 41.8 | 31.1 | 31.3 |  |
| C=CCc1ccc(O)c(-c2ccc(OCc3ccccc3)c(CC=C)c2)c1 | 23.2 | 29.8 | 30.3 |  |
| C=CCc1ccc(OCc2ccc(Cl)c(Cl)c2)c(-c2ccc(O)c(CC=C)c2)c1 | 17.5 | 12.2 | 14.2 |  |
| C=CCc1ccc(OCC)c(-c2ccc(OCC)c(CC=C)c2)c1 | > 50 | > 50 | > 50 |  |
| C=CCc1ccc(O)c(-c2ccc(OCc3ccc(Cl)c(Cl)c3)c(CC=C)c2)c1 | 15.3 | 12.3 | 17.8 |  |
| C=CCc1ccc(O)c(-c2ccc(OCC)c(CC=C)c2)c1 | 26.3 | 21.4 | 24.1 |  |
| C=CCc1ccc(OCc2ccc(Cl)cc2Cl)c(-c2ccc(OCc3ccc(Cl)cc3Cl)c(CC=C)c2)c1 | > 50 | > 50 | > 50 |  |
| C=CCc1ccc(OCc2ccc(Cl)c(Cl)c2)c(-c2ccc(OCc3ccc(Cl)c(Cl)c3)c(CC=C)c2)c1 | > 50 | > 50 | > 50 |  |
